Like-named read-outs stand apart in the source and are kept apart here.
Legend:
[1] = system: Lactobacillus casei subsp. paracasei DN-114 121; assay: Cell count of Lactobacillus casei subsp. paracasei co-cultured with yogurt ferments in dairy medium; format: cell-based; details: for ratio count.Mn/count. J + 1 / ratio count.Mn/count. J + 3: Mn 20 mg/L vs without Mn; for Count ufc/ml at +10° C. J + 1 / Count ufc/ml at +10° C. J + 3: Mn 20 mg/L
Method: Medium A and medium B are inoculated with Lactobacillus casei subsp. paracasei DN-114 121 (3.80×10^7 CFU/ml), and a yogurt ferment (DN 542 142) consisting of: Streptococcus thermophilus DN-001 640 (10^6 CFU/ml), Streptococcus thermophilus DN-001 336 (2. 10^6 CFU/ml), Streptococcus thermophilus DN-001 236 (7. 10^5 CFU/ml) and Lactobacillus bulgaricus DN-100 290 (10^5 CFU/ml).
Fermentation was conducted at 36° C., and monitored by measuring the decrease of pH in the culture medium. Fermentation was stopped by transferring the preparation at 4° C. when a target pH of 4.6 was reached.
(§1) The population of Lactobacillus casei subsp. paracasei, was evaluated at J+3 by cell count analysis. Cell count analysis was performed by serial dilutions of the fermented medium with tryptone salt solution, and plating on Petri dishes with appropriate agar medium: MRS Agar containing 1.5 g/l of BactoOXGALL (DIFCO) for Lactobacillus casei.
(§2) Petri dishes were incubated at 37° C. during 96 H in anaerobic conditions (5% CO2).
Two yogurt ferments were tested in combination with Lactobacillus casei: DN 542 142 described above, and DN 543 043, consisting of a strain of Streptococcus thermophilus (DN-.001 171) and a strain of Lactobacillus bulgaricus (DN-100 182).
Lactobacillus casei subsp. paracasei DN-114 121 was inoculated at 3.8 10^7 CFU/ml.
DN 542 142 was inoculated at 10^6 CFU/ml for Streptococcus thermophilus DN-001 640; 2.10^6 CFU/ml for Streptococcus thermophilus DN-001 336; 7.10^5 CFU/ml for Streptococcus thermophilus DN-001 236, and 10^5 CFU/ml for Lactobacillus bulgaricus DN-100 290.
DN 543 043 was inoculated at 2.10^6 CFU/ml for Streptococcus thermophilus DN-001 171; and 7.10^4 CFU/ml for Lactobacillus bulgaricus DN-100 182.
Fermentation was conducted at 36° C., and monitored by measuring the decrease of pH in the culture medium. Fermentation was stopped by transferring the preparation at 4° C. when a target pH of about 4.6 (in the case of the co-culture with the yogurt ferment DN 542 142), or of about 4.45 (in the case of the co-culture with the yogurt ferment DN 543 043) was reached.
The population of Lactobacillus casei subsp. paracasei was evaluated after 1 day (J+1) and 3 days (J+3) incubation at 10° C.
(§3) The same experimentations as in Example 1 were performed with co-cultures of Lactobacillus casei subsp. paracasei DN-114 121 or Lactobacillus casei subsp. rhamnosus DN-116 010 with the yogurt ferment DN 543 043 described above, or the yogurt ferment DN 522 044, consisting of a strain of Streptococcus thermophilus (DN-001 143), Streptococcus thermophilus (DN-001 257) and a strain of Lactobacillus lactis (DN-111 224).
(§4) Fermentation was conducted at 36° C., and monitored by measuring the decrease of pH in the culture medium. Fermentation was stopped by transfering the preparation at 4° C. when a target pH of about 4.6 was reached.
(§5) The population of Lactobacillus casei subsp. paracasei was evaluated after 1 day (J+1) incubation at 10° C.

[2] = system: Lactobacillus casei subsp. rhamnosus DN-116 010; details: for paracasei ou rhamnosus count. num. Mn/count. J + 1 / Count ufc/ml at +10° C. Count. J + 1 paracasei ou rhamnosus: 543 043 + 116 010
Method: as §1, §2, §3
Lactobacillus casei subsp. rhamnosus DN-116 010 was inoculated at 5.8 10^7. CFU/ml.
DN 543 043 was inoculated at 2 10^6 CFU/ml for Streptococcus thermophilus DN-001 171; and 7 10^4 CFU/ml for Lactobacillus bulgaricus DN-100 182.
as §4, §5

[3] = system: Streptococcus thermophilus and Lactobacillus bulgaricus; assay: Acidification kinetics of the co-cultures (monitoring of yogurt bacteria growth by pH decrease); format: cell-based
Excerpt: The populations of Streptococcus thermophilus and Lactobacillus bulgaricus were not evaluated by cell counts, but by the evaluation of the acidification kinetics. It is well known that Streptococcus thermophilus and Lactobacillus bulgaricus grow faster in milk than L. casei and their lactic acid productions are directly correlated to their growth. Also, in the present invention, the monitoring of acidification corresponds to the monitoring of Streptococcus thermophilus and Lactobacillus bulgaricus growth.

[4] = addition of 20 mg/l of manganese, Example 1 co-cultures (DN 542 142 or DN 543 043 + DN-114 121)

Substance: monohydrate manganese sulfate [Mn]
- paracasei ou rhamnosus count. num. Mn/count. J + 1 ([1]; 522 044 + 114 121, 20 mg/L Mn vs 0 mg/L Mn): 2.3
- Count ufc/ml at +10° C. Count. J + 1 paracasei ou rhamnosus ([1]; 522 044 + 114 121, 20 mg/L Mn): 3.25E+08 ufc/ml
- ratio count.Mn/count. J + 1 ([1]; 542 142 + 114 121): 1.9
- ratio count.Mn/count. J + 3 ([1]; 542 142 + 114 121): 1.7
- Count ufc/ml at +10° C. J + 1 ([1]; 542 142 + 114 121): 1.15E+08 ufc/ml
- Count ufc/ml at +10° C. J + 3 ([1]; 542 142 + 114 121): 1.61E+08 ufc/ml
- paracasei ou rhamnosus count. num. Mn/count. J + 1 ([1]; 543 043 + 114 121, 0.5 mg/L Mn vs 0 mg/L Mn): 2.2
- Count ufc/ml at +10° C. Count. J + 1 paracasei ou rhamnosus ([1]; 543 043 + 114 121, 0.5 mg/L Mn): 2.99E+08 ufc/ml
- paracasei ou rhamnosus count. num. Mn/count. J + 1 ([1]; 543 043 + 114 121, 20 mg/L Mn vs 0 mg/L Mn): 2.3
- Count ufc/ml at +10° C. Count. J + 1 paracasei ou rhamnosus ([1]; 543 043 + 114 121, 20 mg/L Mn): 3.13E+08 ufc/ml
- paracasei ou rhamnosus count. num. Mn/count. J + 1 ([1]; 543 043 + 114 121, 60 mg/L Mn vs 0 mg/L Mn): 2.4
- Count ufc/ml at +10° C. Count. J + 1 paracasei ou rhamnosus ([1]; 543 043 + 114 121, 60 mg/L Mn): 3.25E+08 ufc/ml
- ratio count.Mn/count. J + 1 ([1]; 543 043 + 114 121): 1.9
- ratio count.Mn/count. J + 3 ([1]; 543 043 + 114 121): 2.1
- Count ufc/ml at +10° C. J + 1 ([1]; 543 043 + 114 121): 2.70E+08 ufc/ml
- Count ufc/ml at +10° C. J + 3 ([1]; 543 043 + 114 121): 3.00E+08 ufc/ml
- effect on the population of the bacteria of the L. casei group ([1]; Example 2, Lactobacillus casei ssp paracasei, 0.5, 20, 60 mg/l manganese): selectively increases the population
- effect on the population of Lactobacillus casei [1, 4]: selectively increases the population of Lactobacillus casei
- paracasei ou rhamnosus count. num. Mn/count. J + 1 ([2]; 20 mg/L Mn vs 0 mg/L Mn): 1.3
- Count ufc/ml at +10° C. Count. J + 1 paracasei ou rhamnosus ([2]; 20 mg/L Mn): 3.20E+08 ufc/ml
- paracasei ou rhamnosus count. num. Mn/count. J + 1 ([2]; 60 mg/L Mn vs 0 mg/L Mn): 1.3
- Count ufc/ml at +10° C. Count. J + 1 paracasei ou rhamnosus ([2]; 60 mg/L Mn): 3.30E+08 ufc/ml
- effect on the population of the bacteria of the L. casei group ([2]; Example 2, Lactobacillus casei ssp rhamnosus, 20, 60 mg/l manganese): selectively increases the population
- effect on the acidification kinetics of the co-cultures ([3]; Example 2 co-cultures, 0.5, 20, 60 mg/l manganese): no effect
- effect on the acidification kinetics of the co-cultures [3, 4]: no effect

Reference: patent US20130149415A1, “Use of manganese for enhancing the growth of L.casei in mixed cultures” (priority 2010, published 2013)
